{"source": "patent US8933195B2", "about": "“Histone deacetylase inhibitors and synthetic method thereof and use thereof in manufacture of medicaments” (Nanjing Yoko Biomedical R & D Ltd., priority 2011, dated 2015)", "key": {"Incap": {"test_system": "Incap", "test": "MTT cancer cell growth inhibition", "format": "cell-based", "settings": "72 h"}, "[1]": {"test_system": "human colon cancer HCT-116", "test": "Subcutaneously transplanted tumors in nude mice", "format": "in vivo, BALB/cA nude mice", "design": "key to RTV (mean ± SD): RTV = Vt/V0, tumor volume at time t over volume at d0", "settings": "for 1-T/C tumor inhibition rate / TV (mean ± SD) d0 / Weight d0 / RTV (mean ± SD) / TV (mean ± SD) d21: Table 1.1; for 1-T/C tumor inhibition rate: after three weeks; for RTV (mean ± SD) / TV (mean ± SD) d21: d21; for Tumor Volume TV (mean ± SD) d 0 / Tumor Volume TV (mean ± SD) d 3 / Tumor Volume TV (mean ± SD) d 7 / Tumor Volume TV (mean ± SD) d 10 / Tumor Volume TV (mean ± SD) d 14 / Tumor Volume TV (mean ± SD) d 17: Table 1.2; for Weight (mean ± SD) d 0 / Weight (mean ± SD) d 3 / Weight (mean ± SD) d 7 / Weight (mean ± SD) d 10 / Weight (mean ± SD) d 14 / Weight (mean ± SD) d 17 / Weight (mean ± SD) d 21: Table 1.3", "procedure": "The solvents are isopropanol and anhydrous ethanol (mixed in the volume ratio of 1:1). The test sample is dissolved with solvents and physiological saline in the ratio of 1:1 for use, and the above solvents and physiological saline are dissolved in the ratio of 1:1 as a negative control.\nThe number of mice in each group: 12 mice in the negative control group, and 6 mice in the administration group.\nThe cell strains are inoculated to the right axilla subcutaneous layer of the nude mice, with 5×10^6 per mouse. After formed, the transplanted tumors are passed down two generations in the nude mice and then used.\nTumor tissues in the vigorous growth period are cut into about 1.5 mm^3, and inoculated to the right axilla subcutaneous layer of the nude mice under aseptic conditions. For the subcutaneously transplanted tumors of the nude mice, the diameter of the transplanted tumors is measured by a vernier caliper. The mice are randomly grouped after the tumors grow to 100-200 mm^3. […] The diameter of the transplanted tumors is measured twice per week in the whole experimental process, and meanwhile the weight of the mice is weighed. The calculation formula of tumor volume (TV) is TV=½×a×b^2, where a and b represent length and width, respectively.\nThe relative tumor volume (RTV) is calculated according to the measured results, with the following calculation formula: RTV=Vt/V0, where V0 is the tumor volume obtained by measurement during administration in different cages (i.e., d0), Vt is the tumor volume obtained by measurement at each time. […] (Wc−WT)Wc×100%, where Wc is the tumor weight of the control group, and WT is the tumor weight of the treatment group."}, "HDAC7": {"molecular_target": "T1, HDAC7 (Homo sapiens, UniProt Q8WUI4)", "T1 sequence (Q8WUI4 1-952)": "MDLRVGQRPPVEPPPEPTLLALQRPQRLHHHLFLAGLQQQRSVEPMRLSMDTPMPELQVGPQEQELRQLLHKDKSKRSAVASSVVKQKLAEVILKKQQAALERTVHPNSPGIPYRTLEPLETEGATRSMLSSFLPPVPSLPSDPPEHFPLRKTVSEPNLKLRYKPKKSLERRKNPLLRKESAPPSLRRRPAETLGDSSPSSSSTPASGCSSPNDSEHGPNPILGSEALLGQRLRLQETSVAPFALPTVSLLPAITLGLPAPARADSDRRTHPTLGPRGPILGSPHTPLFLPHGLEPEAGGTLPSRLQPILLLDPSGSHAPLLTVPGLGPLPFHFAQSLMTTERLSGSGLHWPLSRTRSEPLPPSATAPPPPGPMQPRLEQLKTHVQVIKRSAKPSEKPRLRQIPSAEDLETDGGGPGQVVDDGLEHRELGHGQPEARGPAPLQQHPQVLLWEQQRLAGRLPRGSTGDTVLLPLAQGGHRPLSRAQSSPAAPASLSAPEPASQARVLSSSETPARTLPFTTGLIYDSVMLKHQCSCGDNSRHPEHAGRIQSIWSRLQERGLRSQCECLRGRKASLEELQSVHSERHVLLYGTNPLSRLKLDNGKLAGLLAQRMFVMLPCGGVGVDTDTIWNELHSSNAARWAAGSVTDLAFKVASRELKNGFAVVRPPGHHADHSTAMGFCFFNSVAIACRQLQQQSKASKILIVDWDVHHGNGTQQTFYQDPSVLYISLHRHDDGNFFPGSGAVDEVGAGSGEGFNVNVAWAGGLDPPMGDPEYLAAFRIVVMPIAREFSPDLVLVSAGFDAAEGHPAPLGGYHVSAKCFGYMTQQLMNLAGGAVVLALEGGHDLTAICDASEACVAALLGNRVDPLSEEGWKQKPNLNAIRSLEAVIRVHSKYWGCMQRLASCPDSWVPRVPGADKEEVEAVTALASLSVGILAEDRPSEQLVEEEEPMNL", "test": "Measurement of biochemical activities of HDAC (fluorescently-labeled acetylated lysine substrate)", "in_short": "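For both HDAC isoforms, fluorescent acetyl-lysine substrate ([…] in reaction) incubated with enzyme and compounds for 30 min at 37; developer then added for 15 min at room temperature. Fluorescence read at excitation 360 nm, emission 460 nm.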"}}}
{"smiles": "C/C=C1\\NC(=O)c2csc(n2)CNC(=O)C[C@@H](/C=C/CCSC(=O)CCCCCCC)OC(=O)[C@H](C(C)C)NC1=O", "note": "[Compound 1-3]", "values": [{"measurement": "GI50", "setting": "Incap", "result": 2000, "unit": "nM"}, {"measurement": "1-T/C tumor inhibition rate", "setting": "[1]; 5 mg/kg q3d × 3w iv", "result": 7.92, "unit": "%"}, {"measurement": "TV (mean ± SD) d0", "setting": "[1]; 5 mg/kg q3d × 3w iv", "result": "122 ± 25", "unit": "mm^3"}, {"measurement": "Weight d0", "setting": "[1]; 5 mg/kg q3d × 3w iv", "result": 16.7, "unit": "g"}, {"measurement": "RTV (mean ± SD)", "setting": "[1]; 5 mg/kg q3d × 3w iv", "result": "9.56 ± 2.44"}, {"measurement": "TV (mean ± SD) d21", "setting": "[1]; 5 mg/kg q3d × 3w iv", "result": "1166 ± 201", "unit": "mm^3"}, {"measurement": "1-T/C tumor inhibition rate", "setting": "[1]; 10 mg/kg q3d × 3w iv", "result": 39.71, "unit": "%"}, {"measurement": "TV (mean ± SD) d0", "setting": "[1]; 10 mg/kg q3d × 3w iv", "result": "120 ± 19", "unit": "mm^3"}, {"measurement": "Weight d0", "setting": "[1]; 10 mg/kg q3d × 3w iv", "result": 17.5, "unit": "g"}, {"measurement": "RTV (mean ± SD)", "setting": "[1]; 10 mg/kg q3d × 3w iv", "result": "6.26 ± 3.33"}, {"measurement": "TV (mean ± SD) d21", "setting": "[1]; 10 mg/kg q3d × 3w iv", "result": "751 ± 244", "unit": "mm^3"}, {"measurement": "1-T/C tumor inhibition rate", "setting": "[1]; 20 mg/kg q3d × 3w iv", "result": 70.26, "unit": "%"}, {"measurement": "TV (mean ± SD) d0", "setting": "[1]; 20 mg/kg q3d × 3w iv", "result": "116 ± 26", "unit": "mm^3"}, {"measurement": "Weight d0", "setting": "[1]; 20 mg/kg q3d × 3w iv", "result": 16.7, "unit": "g"}, {"measurement": "RTV (mean ± SD)", "setting": "[1]; 20 mg/kg q3d × 3w iv", "result": "3.09 ± 3.14"}, {"measurement": "TV (mean ± SD) d21", "setting": "[1]; 20 mg/kg q3d × 3w iv", "result": "358 ± 201", "unit": "mm^3"}, {"measurement": "Tumor Volume TV (mean ± SD) d 0", "setting": "[1]; 5 mg/kg", "result": "122 ± 25", "unit": "mm^3"}, {"measurement": "Tumor Volume TV (mean ± SD) d 3", "setting": "[1]; 5 mg/kg", "result": "179 ± 15", "unit": "mm^3"}, {"measurement": "Tumor Volume TV (mean ± SD) d 7", "setting": "[1]; 5 mg/kg", "result": "343 ± 58", "unit": "mm^3"}, {"measurement": "Tumor Volume TV (mean ± SD) d 10", "setting": "[1]; 5 mg/kg", "result": "454 ± 41", "unit": "mm^3"}, {"measurement": "Tumor Volume TV (mean ± SD) d 14", "setting": "[1]; 5 mg/kg", "result": "605 ± 60", "unit": "mm^3"}, {"measurement": "Tumor Volume TV (mean ± SD) d 17", "setting": "[1]; 5 mg/kg", "result": "895 ± 138", "unit": "mm^3"}, {"measurement": "Tumor Volume TV (mean ± SD) d 0", "setting": "[1]; 10 mg/kg", "result": "120 ± 19", "unit": "mm^3"}, {"measurement": "Tumor Volume TV (mean ± SD) d 3", "setting": "[1]; 10 mg/kg", "result": "163 ± 38", "unit": "mm^3"}, {"measurement": "Tumor Volume TV (mean ± SD) d 7", "setting": "[1]; 10 mg/kg", "result": "217 ± 67", "unit": "mm^3"}, {"measurement": "Tumor Volume TV (mean ± SD) d 10", "setting": "[1]; 10 mg/kg", "result": "302 ± 105", "unit": "mm^3"}, {"measurement": "Tumor Volume TV (mean ± SD) d 14", "setting": "[1]; 10 mg/kg", "result": "408 ± 70", "unit": "mm^3"}, {"measurement": "Tumor Volume TV (mean ± SD) d 17", "setting": "[1]; 10 mg/kg", "result": "571 ± 175", "unit": "mm^3"}, {"measurement": "Tumor Volume TV (mean ± SD) d 0", "setting": "[1]; 20 mg/kg", "result": "116 ± 26", "unit": "mm^3"}, {"measurement": "Tumor Volume TV (mean ± SD) d 3", "setting": "[1]; 20 mg/kg", "result": "129 ± 10", "unit": "mm^3"}, {"measurement": "Tumor Volume TV (mean ± SD) d 7", "setting": "[1]; 20 mg/kg", "result": "155 ± 28", "unit": "mm^3"}, {"measurement": "Tumor Volume TV (mean ± SD) d 10", "setting": "[1]; 20 mg/kg", "result": "193 ± 68", "unit": "mm^3"}, {"measurement": "Tumor Volume TV (mean ± SD) d 14", "setting": "[1]; 20 mg/kg", "result": "245 ± 117", "unit": "mm^3"}, {"measurement": "Tumor Volume TV (mean ± SD) d 17", "setting": "[1]; 20 mg/kg", "result": "275 ± 112", "unit": "mm^3"}, {"measurement": "Weight (mean ± SD) d 0", "setting": "[1]; 5 mg/kg", "result": "16.7 ± 0.6", "unit": "g"}, {"measurement": "Weight (mean ± SD) d 3", "setting": "[1]; 5 mg/kg", "result": "15.9 ± 0.7", "unit": "g"}, {"measurement": "Weight (mean ± SD) d 7", "setting": "[1]; 5 mg/kg", "result": "15.0 ± 0.9", "unit": "g"}, {"measurement": "Weight (mean ± SD) d 10", "setting": "[1]; 5 mg/kg", "result": "14.5 ± 1.2", "unit": "g"}, {"measurement": "Weight (mean ± SD) d 14", "setting": "[1]; 5 mg/kg", "result": "14.1 ± 1.0", "unit": "g"}, {"measurement": "Weight (mean ± SD) d 17", "setting": "[1]; 5 mg/kg", "result": "13.5 ± 0.9", "unit": "g"}, {"measurement": "Weight (mean ± SD) d 21", "setting": "[1]; 5 mg/kg", "result": "13.3 ± 1.0", "unit": "g"}, {"measurement": "Weight (mean ± SD) d 0", "setting": "[1]; 10 mg/kg", "result": "17.5 ± 1.6", "unit": "g"}, {"measurement": "Weight (mean ± SD) d 3", "setting": "[1]; 10 mg/kg", "result": "16.6 ± 1.9", "unit": "g"}, {"measurement": "Weight (mean ± SD) d 7", "setting": "[1]; 10 mg/kg", "result": "15.8 ± 2.0", "unit": "g"}, {"measurement": "Weight (mean ± SD) d 10", "setting": "[1]; 10 mg/kg", "result": "15.7 ± 2.0", "unit": "g"}, {"measurement": "Weight (mean ± SD) d 14", "setting": "[1]; 10 mg/kg", "result": "14.8 ± 1.8", "unit": "g"}, {"measurement": "Weight (mean ± SD) d 17", "setting": "[1]; 10 mg/kg", "result": "14.2 ± 1.7", "unit": "g"}, {"measurement": "Weight (mean ± SD) d 21", "setting": "[1]; 10 mg/kg", "result": "13.5 ± 1.6", "unit": "g"}, {"measurement": "Weight (mean ± SD) d 0", "setting": "[1]; 20 mg/kg", "result": "16.7 ± 0.5", "unit": "g"}, {"measurement": "Weight (mean ± SD) d 3", "setting": "[1]; 20 mg/kg", "result": "16.1 ± 0.4", "unit": "g"}, {"measurement": "Weight (mean ± SD) d 7", "setting": "[1]; 20 mg/kg", "result": "14.6 ± 0.4", "unit": "g"}, {"measurement": "Weight (mean ± SD) d 10", "setting": "[1]; 20 mg/kg", "result": "14.7 ± 0.4", "unit": "g"}, {"measurement": "Weight (mean ± SD) d 14", "setting": "[1]; 20 mg/kg", "result": "13.7 ± 0.3", "unit": "g"}, {"measurement": "Weight (mean ± SD) d 17", "setting": "[1]; 20 mg/kg", "result": "13.0 ± 0.3", "unit": "g"}, {"measurement": "Weight (mean ± SD) d 21", "setting": "[1]; 20 mg/kg", "result": "13.1 ± 0.6", "unit": "g"}, {"measurement": "IC50 HDAC7", "setting": "HDAC7", "result": "no activity"}]}
